{"source": "patent US11976058B2", "about": "“Aromatic derivatives, preparation methods, and medical uses thereof” (Bioardis LLC, priority 2019, dated 2024)", "key": {"[1]": {"test_system": "MAPK phosphorylation in Hep3B cells stimulated with FGF19", "assay": "FGFR4 pMAPK AlphaLISA SureFire Ultra assay", "assay_type": "cell-based", "details": "serum-starved, compound 1 hour, FGF19 100 ng/ml for 4 hours, read-out: Potency (IC50), FGFR4 pMAPK AlphaLISA", "excerpt": "(§1) Cell line: Hepatocellular carcinoma cell line Hep3B (ATCC, Cat #HB-8064).\nIn normal liver, circulating FGF19 drives liver cell proliferation and regulates bile acid production. However aberrant expression of FGF19 in the liver drives HCC tumorigenesis, upregulates MAPK phosphorylation in FGF19-amplified malignant liver cells. AlphaScreen SureFire technology allows the detection of phosphorylated proteins in cellular lysates in a highly sensitive, quantitative assay. In these assays, sandwich antibody complexes, which are only formed in the presence of analyte, are captured by AlphaScreen Donor and Acceptor beads, bringing them into close proximity. The excitation of the Donor bead provokes the release of singlet oxygen molecules that triggers a cascade of energy transfer in the Acceptor beads, resulting in the emission of light at 520-620 nm.\nHep3B cells were plated at a density of 1×10^4/ml cells in a 96-well plate (Corning #3599), with 100 uL per well of MEM Medium (Gibco Cat #11095-080) supplemented with 10% fetal bovine serum; 1% Penicillin-Streptomycin, and cultured overnight at 37° C., 5% CO2. Starve Hep3B cells in serum-free medium (SFM) supplemented with 0.2% BSA and incubate the cells again overnight at 37° C., 5% CO2. Various concentrations of the test compound (prepared in 2x SFM) were added to the wells of the cell plate and then incubated for 1 hour at 37° C., 5% CO2. 50 μL of FGF19 in SFM was added to each well of the cell plate with a final FGF19 concentration of 100 ng/ml, and cells treated with FGF19 were stimulated for 4 hours at 37° C., 5% CO2. 5 μL of freshly prepared Donor Mix and Acceptor Mix were sequentially added to the cell plate, each followed with 1 hour of incubation at 25° C., 5% CO2. Read the cell plate on an Alpha Technology-compatible plate reader at 570 nm AlphaScreen, using standard AlphaLISA settings. The percent (%) inhibition=((ZPE−Alpha-Signal)/(ZPE−HPE))*100% where the meanings of HPE and ZPE are as provided below.\nHPE: Hundred Percent Effect, negative control well without FGF19 nor compound. Final concentration of DMSO is 0.1%.\nZPE: Zero Percent Effect, positive control well without compound. Final concentration of FGF19 is 100 ng/mL, DMSO is 0.1%.\nThe concentrations and percent inhibition values for a test compound were plotted and the concentration of the compound required to achieve 50% inhibition (IC50) was determined with a four-parameter logistic dose response equation. Dose-response curves were generated using Prism (GraphPad Software, La Jolla, CA, US) to calculate IC50 values for each compound tested."}, "Hep3B cells": {"test_system": "Hep3B cells", "assay": "Cell-based FGFR4 proliferation assay (CellTiter-Glo)", "details": "incubated with test compound for 3 days, CellTiter-Glo luminescence, read-out: Potency (IC50), Hep3B cell proliferation", "protocol": "Hepatocellular carcinoma cell line Hep3B (ATCC, Cat #HB-8064) were cultured at 37° C., 5% CO2 in ATCC-formulated Eagle's Minimum Essential Medium supplemented with 10% fetal bovine serum; 1% Penicillin-Streptomycin.\nas §1\nIn this assay, Hep3B cells are seeded in 384-well microplates, and after exposure to experimental compounds for […], CellTiter-Glo® Luminescent Cell Viability Assay kit (Promega, Cat #G7572) are used to determine the number of viable cells in the culture based on quantitation of the ATP present, which signals the presence of metabolically active cells. Luminescent signal is proportional to the amount of ATP present. The amount of ATP is directly proportional to the number of cells present in the culture, allowing drug-induced effects on cell proliferation to be measured.\nHep3B cells were plated at a density of 4×10^4/ml cells in a 384-well black/clear microplate with 20 μL per well of MEM Medium (Gibco Cat. #11095-080) supplemented with 10% fetal bovine serum; 1% Penicillin-Streptomycin, and cultured overnight at 37° C., 5% CO2. Various concentrations of the test compound (dissolved in 100% DMSO) were added to the wells of the cell plate. The cells were incubated with the test compound for 3 days at 37° C., 5% CO2. 5 μL of CellTiter-Glo® Reagent was added to each well of the cell plate. The cell plate was incubated for 5 min at 25° C. on a plate shaker (IKA MTS 2/4) at 300 rpm. Luminescence signals were read on a TECAN Spark 10M instrument (TECAN). […] The concentrations and percent inhibition values for a test compound were plotted and the concentration of the compound required to achieve 50% inhibition (IC50) is determined with a four-parameter logistic dose response equation. Dose-response curves were generated using Prism (GraphPad Software, La Jolla, CA, US) to calculate IC50 values for each compound tested."}, "human FGFR4": {"biological_target": "T1, human FGFR4 (Homo sapiens, UniProt P22455)", "T1 construct": "human FGFR4 cytoplasmic domain (460-802); GST (N); purchased Carna Biosciences 08-136", "T1 sequence (P22455 460-802)": "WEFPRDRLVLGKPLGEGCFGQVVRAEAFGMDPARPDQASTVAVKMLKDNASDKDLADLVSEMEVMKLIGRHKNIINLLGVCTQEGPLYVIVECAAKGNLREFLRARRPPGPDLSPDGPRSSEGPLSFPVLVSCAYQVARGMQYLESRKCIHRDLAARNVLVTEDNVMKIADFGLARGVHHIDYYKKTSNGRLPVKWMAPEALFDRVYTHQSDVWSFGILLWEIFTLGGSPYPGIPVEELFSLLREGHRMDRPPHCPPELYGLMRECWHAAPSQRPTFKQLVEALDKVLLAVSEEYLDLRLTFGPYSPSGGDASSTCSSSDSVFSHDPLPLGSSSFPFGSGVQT", "assay": "FGFR4 enzymatic assay (HTRF KinEASE-TK)", "assay_type": "biochemical", "details": "wild-type human FGFR4 cytoplasmic domain (460-802), GST-tag; 60 min preincubation at 25° C.; ATP 200 μM; read-out: Potency (IC50), FGFR4 enzymatic assay", "procedure,_shortened": "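GST-tagged FGFR4 cytoplasmic domain (460-802) at 0.25 μg/ml, preincubated with compound 60 min at 25 °C in HEPES pH 7.0 buffer, then reacted 40 min at 37 °C with 0.3 μM biotin-TK peptide and 200 μM ATP. HTRF detection (665/612 nm) after 60 min; IC50 by four-parameter logistic fit.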"}}, "note": "Like-named read-outs stand apart in the source and are kept apart here."}
{"smiles": "[2H]C([2H])([2H])n1ncc(NC(=O)C=C)c1-c1n[nH]c2c1CCC(c1cc(OC)cc(OC)c1F)C2", "note": "(single isomer, unassigned) [Compound S16-P3, N-(5-(6-(2-fluoro-3,5-dimethoxyphenyl)-4,5,6,7-tetrahydro-1H-indazol-3-yl)-1-(methyl-d3)-1H-pyrazol-4-yl)acrylamide]", "values": [{"measurement": "IC50", "setting": "[1]; Homo sapiens, Hep3B", "result": "10 to 100", "unit": "nM"}, {"measurement": "IC50", "setting": "Hep3B cells; Homo sapiens, Hep3B, 72 h", "result": "> 100", "unit": "nM"}, {"measurement": "IC50", "setting": "human FGFR4", "result": "10 to 100", "unit": "nM"}]}
{"smiles": "[2H]C([2H])([2H])n1ncc(NC(=O)C=C)c1-c1n[nH]c2c1CCC(c1cc(OC)cc(OC)c1F)C2", "note": "(single isomer, unassigned) [Compound S16-P4, N-(5-(6-(2-fluoro-3,5-dimethoxyphenyl)-4,5,6,7-tetrahydro-1H-indazol-3-yl)-1-(methyl-d3)-1H-pyrazol-4-yl)acrylamide]", "values": [{"measurement": "IC50", "setting": "[1]", "result": "10 to 100", "unit": "nM"}, {"measurement": "IC50", "setting": "Hep3B cells", "result": "> 100", "unit": "nM"}, {"measurement": "IC50", "setting": "human FGFR4", "result": "10 to 100", "unit": "nM"}]}
{"smiles": "C=CC(=O)Nc1cnn(C(C)C)c1-c1n[nH]c2c1CCC(c1c(F)c(OC)cc(OC)c1F)C2", "note": "(single isomer, unassigned) [Compound S17-P1, N-(5-(6-(2,6-difluoro-3,5-dimethoxyphenyl)-4,5,6,7-tetrahydro-1H-indazol-3-yl)-1-isopropyl-1H-pyrazol-4-yl)acrylamide]", "values": [{"measurement": "IC50", "setting": "[1]; Homo sapiens, Hep3B", "result": "10 to 100", "unit": "nM"}, {"measurement": "IC50", "setting": "Hep3B cells", "result": "> 100", "unit": "nM"}, {"measurement": "IC50", "setting": "human FGFR4", "result": "10 to 100", "unit": "nM"}]}
{"smiles": "C=CC(=O)Nc1cnn(C(C)C)c1-c1n[nH]c2c1CCC(c1c(F)c(OC)cc(OC)c1F)C2", "note": "(single isomer, unassigned) [Compound S17-P2, N-(5-(6-(2,6-difluoro-3,5-dimethoxyphenyl)-4,5,6,7-tetrahydro-1H-indazol-3-yl)-1-isopropyl-1H-pyrazol-4-yl)acrylamide]", "values": [{"measurement": "IC50", "setting": "[1]", "result": "< 10", "unit": "nM"}, {"measurement": "IC50", "setting": "Hep3B cells", "result": "10 to 100", "unit": "nM"}, {"measurement": "IC50", "setting": "human FGFR4", "result": "10 to 100", "unit": "nM"}]}
{"smiles": "C=CC(=O)Nc1cnn(C)c1-c1n[nH]c2c1CCC(c1c(F)c(OC)cc(OC)c1F)=C2", "note": "[Compound S5-P1, N-(5-(6-(2,6-difluoro-3,5-dimethoxyphenyl)-4,5-dihydro-1H-indazol-3-yl)-1-methyl-1H-pyrazol-4-yl) acrylamide]", "values": [{"measurement": "IC50", "setting": "[1]; Homo sapiens, Hep3B", "result": "< 10", "unit": "nM"}, {"measurement": "IC50", "setting": "Hep3B cells; Homo sapiens, Hep3B, 72 h", "result": "10 to 100", "unit": "nM"}, {"measurement": "IC50", "setting": "human FGFR4", "result": "10 to 100", "unit": "nM"}]}
{"smiles": "C=CC(=O)Nc1cnn(C)c1-c1n[nH]c2c1CCC(c1cc(OC)cc(OC)c1F)=C2", "note": "[Compound S5-P2, N-(5-(6-(2-fluoro-3,5-dimethoxyphenyl)-4,5-dihydro-1H-indazol-3-yl)-1-methyl-1H-pyrazol-4-yl)acrylamide]", "values": [{"measurement": "IC50", "setting": "[1]; Homo sapiens, Hep3B", "result": "10 to 100", "unit": "nM"}, {"measurement": "IC50", "setting": "Hep3B cells; Homo sapiens, Hep3B, 72 h", "result": "> 100", "unit": "nM"}, {"measurement": "IC50", "setting": "human FGFR4", "result": "10 to 100", "unit": "nM"}]}
{"smiles": "C=CC(=O)Nc1cnn(C)c1-c1n[nH]c2c1CCC1(C2)OCc2c(OC)cc(OC)c(F)c21", "note": "(stereo not drawn) [Compound S9, N-(5-(7′-fluoro-4′,6′-dimethoxy-1,4,5,7-tetrahydro-3′H-spiro[indazole-6,1′-isobenzofuran]-3-yl)-1-methyl-1H-pyrazol-4-yl)acrylamide]", "values": [{"measurement": "IC50", "setting": "[1]; Homo sapiens, Hep3B", "result": "> 100", "unit": "nM"}, {"measurement": "IC50", "setting": "Hep3B cells; Homo sapiens, Hep3B, 72 h", "result": "> 100", "unit": "nM"}, {"measurement": "IC50", "setting": "human FGFR4", "result": "10 to 100", "unit": "nM"}]}
{"smiles": "C=CC(=O)Nc1cn[nH]c1-c1n[nH]c2c1CCC[C@@H](c1c(F)c(OC)cc(OC)c1F)C2", "note": "[Compound S11-P2, (R)—N-(5-(7-(2,6-difluoro-3,5-dimethoxyphenyl)-1,4,5,6,7,8-hexahydrocyclohepta[c]pyrazol-3-yl)-1H-pyrazol-4-yl)acrylamide]", "values": [{"measurement": "IC50", "setting": "[1]", "result": "< 10", "unit": "nM"}, {"measurement": "IC50", "setting": "Hep3B cells", "result": "< 10", "unit": "nM"}, {"measurement": "IC50", "setting": "human FGFR4", "result": "< 10", "unit": "nM"}]}
{"smiles": "C=CC(=O)Nc1cnn(CC)c1-c1n[nH]c2c1CC[C@@H](c1c(F)c(OC)cc(OC)c1F)C2", "note": "[Compound S14-P1, (R)—N-(5-(6-(2,6-difluoro-3,5-dimethoxyphenyl)-4,5,6,7-tetrahydro-1H-indazol-3-yl)-1-ethyl-1H-pyrazol-4-yl) acrylamide]", "values": [{"measurement": "IC50", "setting": "[1]; Homo sapiens, Hep3B", "result": "10 to 100", "unit": "nM"}, {"measurement": "IC50", "setting": "Hep3B cells; Homo sapiens, Hep3B, 72 h", "result": "> 100", "unit": "nM"}, {"measurement": "IC50", "setting": "human FGFR4", "result": "10 to 100", "unit": "nM"}]}
{"smiles": "C=CC(=O)Nc1cnn(CC)c1-c1n[nH]c2c1CC[C@H](c1c(F)c(OC)cc(OC)c1F)C2", "note": "[Compound S14-P2, (S)—N-(5-(6-(2,6-difluoro-3,5-dimethoxyphenyl)-4,5,6,7-tetrahydro-1H-indazol-3-yl)-1-ethyl-1H-pyrazol-4-yl) acrylamide]", "values": [{"measurement": "IC50", "setting": "[1]; Homo sapiens, Hep3B", "result": "< 10", "unit": "nM"}, {"measurement": "IC50", "setting": "Hep3B cells; Homo sapiens, Hep3B, 72 h", "result": "10 to 100", "unit": "nM"}, {"measurement": "IC50", "setting": "human FGFR4", "result": "< 10", "unit": "nM"}]}
